Consider 17 compounds from PubChem BioAssay AID328 (DTP/NCI, 2004).

Structures are written as SMILES. Values joined by “and” are separate entries in the source; they are usually repeats but may differ in a detail not shown here. Identical values can stand only once. Inconclusive results and toxic doses are left out. Starred links: 1 amine or outer side, 2 acyl side, 3 side chain; linkers in the order of their positions; H or OH if unused. Positions of bridges follow the written chain, without caps; N, C: chain ends. Non-standard residues stand in square brackets, D forms with d. Residues, ends and D or L forms follow the SMILES beside them. Chains are numbered I, II in the order given. ξ: configuration not given here. Actinocin(9to1) = Cc1c2oc3c(C)ccc(C(=O)[*:1])c3nc-2c(C(=O)[*:2])c(N)c1=O; ξPro(4ξ-Me) = CC1CNC(C(=O)O)C1; NMeV = CN[CH](C(=O)O)C(C)C; Sar = CNCC(=O)O

In this assay the test system is BDF1 mice, P388 leukemia ip, median survival T/C. Nature of the assay: NCI In Vivo Anticancer Drug Screen. Data for tumor model P388 Leukemia (intraperitoneal) in B6D2F1 (BDF1) mice. Particulars: endpoint: median survival time, higher = longer survival. The procedure, abridged: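 In tumour-bearing mice, survival after compound treatment is set against the vehicle group and given as a quotient.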

The mark [1] stands for this setting: dose: 50.0 mg/kg/injection, schedule: Q01DX009 (ip), vehicle: saline.
The mark [2] stands for this setting: dose: 100.0 mg/kg/injection, schedule: Q01DX009 (ip), vehicle: saline.
[3] abbreviates: dose: 200.0 mg/kg/injection, schedule: Q01DX009 (ip), vehicle: saline.
Setting [4] is: dose: 100.0 mg/kg/injection, schedule: Q01DX009 (ip), vehicle: saline with Tween-80.
[5] abbreviates: dose: 200.0 mg/kg/injection, schedule: Q01DX009 (ip), vehicle: saline with Tween-80.
[6] abbreviates: dose: 400.0 mg/kg/injection, schedule: Q01DX009 (ip), vehicle: saline with Tween-80.
The mark [7] stands for this setting: dose: 50.0 mg/kg/injection, schedule: Q01DX005 (ip), vehicle: saline with Tween-80.

Take `NCC(O)CSc1ccccc1` (stereo unspecified): the T/C is, setting by setting: (dose: 25.0 mg/kg/injection, schedule: Q01DX009 (ip), vehicle: saline) 95 % of control; under setting [1], 100 % of control; under setting [2], 106 % of control.

`Nc1ccccc1-c1ccccc1N`: the T/C runs as follows: (dose: 100.0 mg/kg/injection, schedule: Q04DX003 (ip), vehicle: Klucel (hydroxypropylcellulose) (HPC)) 100 % of control; (dose: 200.0 mg/kg/injection, schedule: Q04DX003 (ip), vehicle: Klucel (hydroxypropylcellulose) (HPC)) 90 % of control.

As for `CC[C@@]1(O)C(=O)OCc2c1cc1n(c2=O)Cc2cc3c(OC)cccc3nc2-1`, the T/C was 182 % of control (dose: 0.5 mg/kg/injection, schedule: Q01DX009 (ip), vehicle: carboxymethylcellulose (CMC)) and 195 % of control (dose: 1.0 mg/kg/injection, schedule: Q01DX009 (ip), vehicle: carboxymethylcellulose (CMC)).

As to `C/C1=C/CCCCCC1`, the T/C by setting is: under setting [2], 104 % of control; (dose: 100.0 mg/kg/injection, schedule: Q04DX003 (ip), vehicle: saline) 95 % of control; under setting [3], 90 % of control; (dose: 200.0 mg/kg/injection, schedule: Q04DX003 (ip), vehicle: saline) 100 % of control; (dose: 400.0 mg/kg/injection, schedule: Q01DX009 (ip), vehicle: saline) 113 % of control; (dose: 400.0 mg/kg/injection, schedule: Q04DX003 (ip), vehicle: saline) 95 % of control.

For `Cc1ccc(CSc2ssc(=S)c2-c2ccccc2)cc1`, the T/C was 104 % of control (dose: 100.0 mg/kg/injection, schedule: Q01DX001 (ip), vehicle: Klucel (hydroxypropylcellulose) (HPC)); 110 % of control (dose: 100.0 mg/kg/injection, schedule: Q01DX009 (ip), vehicle: Klucel (hydroxypropylcellulose) (HPC)); 104 % of control (dose: 200.0 mg/kg/injection, schedule: Q01DX001 (ip), vehicle: Klucel (hydroxypropylcellulose) (HPC)); 110 % of control (dose: 200.0 mg/kg/injection, schedule: Q01DX009 (ip), vehicle: Klucel (hydroxypropylcellulose) (HPC)); 109 % of control (dose: 400.0 mg/kg/injection, schedule: Q01DX001 (ip), vehicle: Klucel (hydroxypropylcellulose) (HPC)); 115 % of control (dose: 400.0 mg/kg/injection, schedule: Q01DX009 (ip), vehicle: Klucel (hydroxypropylcellulose) (HPC)).

Regarding `CO/C(O)=c1/nc2c(n(C)c1=N)=CCCC2`, the T/C (dose: 50.0 mg/kg/injection, schedule: Q01DX009 (ip), vehicle: saline with Tween-80) is 100 % of control and the T/C under setting [4] is 104 % of control.

On to `O=S(=O)(Oc1ccccc1)C(F)(F)C(F)(F)C(F)(F)C(F)(F)F`, for which the T/C was 109 % of control under setting [1], 106 % of control under setting [2] and 109 % of control under setting [3].

In the case of `O=C(c1ccccc1)N1CC1`, the T/C was 101 % of control (dose: 25.0 mg/kg/injection, schedule: Q01DX009 (ip), vehicle: water); 115 % of control (dose: 25.0 mg/kg/injection, schedule: Q04DX003 (ip), vehicle: water); 92 % of control (dose: 50.0 mg/kg/injection, schedule: Q04DX003 (ip), vehicle: water); 100 % of control (dose: 100.0 mg/kg/injection, schedule: Q04DX003 (ip), vehicle: water); 109 % of control (dose: 200.0 mg/kg/injection, schedule: Q04DX003 (ip), vehicle: water); 112 % of control (dose: 400.0 mg/kg/injection, schedule: Q01DX009 (ip), vehicle: water). In addition, for the setting “dose: 400.0 mg/kg/injection, schedule: Q04DX003 (ip), vehicle: water”, the T/C is 115 % of control.

Regarding `Cc1c2oc3c(C)ccc(C(=O)NC4C(=O)NC(C(C)C)C(=O)N5CC(C)CC5C(=O)N(C)CC(=O)N(C)C(C(C)C)C(=O)OC4C)c3nc-2c(C(=O)NC2C(=O)NC(C(C)C)C(=O)N3CC(C)CC3C(=O)N(C)CC(=O)N(C)C(C(C)C)C(=O)OC2C)c(N)c1=O` (stereo unspecified) (I: TV[ξPro(4ξ-Me)][Sar][NMeV] / II: TV[ξPro(4ξ-Me)][Sar][NMeV]; ester I:1-I:C, II:1-II:C; linker I:N-II:N via Actinocin(9to1); configuration not given here), the T/C by setting is: (dose: 1.3 mg/kg/injection, schedule: Q01DX009 (ip), vehicle: saline + alcohol) 204 % of control; (dose: 2.16 mg/kg/injection, schedule: Q01DX009 (ip), vehicle: saline + alcohol) 228 % of control; (dose: 3.24 mg/kg/injection, schedule: Q04DX003 (ip), vehicle: saline + alcohol) 190 % of control and 161 % of control and 193 % of control; (dose: 3.6 mg/kg/injection, schedule: Q01DX009 (ip), vehicle: saline + alcohol) 314 % of control; (dose: 5.4 mg/kg/injection, schedule: Q04DX003 (ip), vehicle: saline + alcohol) 160 % of control and 219 % of control; (dose: 9.0 mg/kg/injection, schedule: Q04DX003 (ip), vehicle: saline + alcohol) 160 % of control and 209 % of control and 99 % of control. Besides, the T/C reads like this: (dose: 15.0 mg/kg/injection, schedule: Q04DX003 (ip), vehicle: saline + alcohol) 104 % of control and 207 % of control; (dose: 288.0 micrograms/kg/injection, schedule: Q01DX009 (ip), vehicle: saline + alcohol) 169 % of control; (dose: 480.0 micrograms/kg/injection, schedule: Q01DX009 (ip), vehicle: saline + alcohol) 176 % of control; (dose: 800.0 micrograms/kg/injection, schedule: Q01DX009 (ip), vehicle: saline + alcohol) 194 % of control; (dose: 864.0 micrograms/kg/injection, schedule: Q04DX003 (ip), vehicle: saline + alcohol) 101 % of control; (dose: 2400.0 micrograms/kg/injection, schedule: Q04DX003 (ip), vehicle: saline + alcohol) 167 % of control. The T/C (dose: 4000.0 micrograms/kg/injection, schedule: Q04DX003 (ip), vehicle: saline + alcohol) is 151 % of control and 194 % of control.

In the case of `N#CC(C#N)C1c2ccccc2C([N+](=O)[O-])c2ccccc21` (stereo unspecified), the T/C reads like this: under setting [4], 112 % of control; under setting [5], 116 % of control; under setting [6], 112 % of control.

In the case of `O=C(NCCNC(=O)c1cccnc1)c1ccncc1`, the T/C is 90 % of control (dose: 100.0 mg/kg/injection, schedule: Q01DX001 (ip), vehicle: saline); 90 % of control (dose: 200.0 mg/kg/injection, schedule: Q01DX001 (ip), vehicle: saline); 90 % of control (dose: 400.0 mg/kg/injection, schedule: Q01DX001 (ip), vehicle: saline).

For the compound `CSc1ccc(NC(=O)NNP(=S)(Oc2ccc(C(C)(C)C)cc2)Oc2ccc(C(C)(C)C)cc2)cc1`, the T/C was 96 % of control under setting [7] and 96 % of control (dose: 100.0 mg/kg/injection, schedule: Q01DX005 (ip), vehicle: saline with Tween-80).

As to `CSCC(NC(=O)OCc1ccccc1)C(=O)O` (stereo unspecified), the T/C reads like this: (dose: 50.0 mg/kg/injection, schedule: Q04DX003 (ip), vehicle: saline with Tween-80) 95 % of control; (dose: 100.0 mg/kg/injection, schedule: Q04DX003 (ip), vehicle: saline with Tween-80) 109 % of control; (dose: 200.0 mg/kg/injection, schedule: Q04DX003 (ip), vehicle: saline with Tween-80) 100 % of control.

In the case of `CC(C)NC(=O)c1ccccc1S(=O)(=O)c1ccccc1C(=O)NC(C)C`, the T/C is, setting by setting: (dose: 100.0 mg/kg/injection, schedule: Q01DX001 (ip), vehicle: saline with Tween-80) 108 % of control; (dose: 200.0 mg/kg/injection, schedule: Q01DX001 (ip), vehicle: saline with Tween-80) 100 % of control; (dose: 400.0 mg/kg/injection, schedule: Q01DX001 (ip), vehicle: saline with Tween-80) 100 % of control.

Consider `O=c1c2ccccc2nnn1Cc1ccco1`, for which the T/C by setting is: under setting [7], 99 % of control; (dose: 200.0 mg/kg/injection, schedule: Q01DX005 (ip), vehicle: saline with Tween-80) 89 % of control.

Turning to `Cc1nc2nccnc2[nH]1`, the T/C was 91 % of control under setting [4], 91 % of control under setting [5] and 100 % of control under setting [6].

Turning to `COc1cccc2c1C(=O)c1c(O)c3c(c(O)c1C2=O)C[C@@](O)(/C(CO)=N/NC(=O)c1ccc(Cl)c(Cl)c1)C[C@@H]3OC1CC(N)C(O)C(C)O1` (stereo partly specified), the T/C reads like this: (dose: 0.78 mg/kg/injection, schedule: Q01DX009 (ip), vehicle: water) 94 % of control; (dose: 3.12 mg/kg/injection, schedule: Q01DX009 (ip), vehicle: water) 116 % of control and 217 % of control; (dose: 6.25 mg/kg/injection, schedule: Q01DX009 (ip), vehicle: water) 121 % of control.
